The target in one test is recombinant CD73 protein (Homo sapiens (Human), UniProt P21589). Description: CD73 Biochemical Assay. The conditions noted are these: 0.2 nM recombinant CD73, 10 μM AMP working solution, Malachite Green readout; read-out: Enzymatic IC50 against CD73. As to the method:
Compound serial dilution (1:3) was prepared with Echo 555 liquid handler (Labcyte) into the corresponding wells of a 384-well plate. 25 μL of enzyme working solution [0.2 nM recombinant CD73 protein (purchased from R&D Systems, Inc), 25 mM Tris-HCl pH 7.5, 5 mM MgCl2, 0.01% BSA, 0.01% Brij-35 non-ionic detergent] was added to the assay plate and incubated with compounds for 15 minutes at room temperature. After adding 25 μL of AMP working solution (10 μM AMP, 25 mM Tris-HCl pH 7.5, 5 mM MgCl2, 0.01% BSA, 0.01% Brij-35) into the assay plate, the reaction was incubated for 10 min at room temperature. 10 uL of Malachite Green A solution was then added to each well for 10 minutes incubation. 10 uL of Malachite B solution was added to each well and then incubated for another 30 minutes. Finally the absorbance value was read on the Envision plate reader (PerkinElmer) at […]. Calculation percentage inhibition by using equation {% inhibition=100×[I−(X−MIN)/(MAX−MIN)]} where X equals to the well signal, Max equals signal of DMSO control and MIN equals signal of no cell control.

Another test has as its target CD73 (MDA-MB-231 cells) (Homo sapiens (Human), UniProt P21589). Description: CD73 Cellular Assay. The format is cell-based. The conditions noted are these: 10 μM AMP working solution, 45 min at 37° C., Malachite Green readout, read-out: Cellular IC50 against CD73. As to the method:
Compound serial dilution (1:3) was prepared with Echo 555 liquid handler (Labcyte) into the corresponding wells of a 384-well plate. 40 μL of MDA-MB-231 cells (ATCC, HTB-26, breast cancer, final concentration at 20,000 cells/mL) suspended in assay buffer (25 mM Tris-HCl pH 7.5, 5 mM MgCl2, 0.01% BSA, 0.01% Brij-35) were added into the corresponding wells of the plate. After incubating with compounds for 30 minutes, 40 μL of AMP working solution (10 μM AMP, 25 mM Tris-HCl pH 7.5, 5 mM MgCl2, 0.01% BSA, 0.01% Brij-35) was added into each well in the assay plate. The assay plate was then incubated in a 5% CO2 incubator (Thermo Fisher Scientific) at 37° C. for 45 min. After the reaction was completed, 50 μL of the supernatants was collected and transferred into a new 384 well plate. 10 μL of Malachite A was added to each well in the assay plate and incubated for 10 minutes. 10u L of Malachite B was then added to each corresponding well of the plate and incubated for 30 minutes. Finally the absorbance value was read on the Envision plate reader at […]. Calculation percentage inhibition by using equation {% inhibition=100×[I−(X−MIN)/(MAX−MIN)]} where X equals to the well signal, Max equals signal of DMSO control and MIN equals signal of no cell control.

recombinant CD73 protein, sequence (P21589 27-574, species assumed): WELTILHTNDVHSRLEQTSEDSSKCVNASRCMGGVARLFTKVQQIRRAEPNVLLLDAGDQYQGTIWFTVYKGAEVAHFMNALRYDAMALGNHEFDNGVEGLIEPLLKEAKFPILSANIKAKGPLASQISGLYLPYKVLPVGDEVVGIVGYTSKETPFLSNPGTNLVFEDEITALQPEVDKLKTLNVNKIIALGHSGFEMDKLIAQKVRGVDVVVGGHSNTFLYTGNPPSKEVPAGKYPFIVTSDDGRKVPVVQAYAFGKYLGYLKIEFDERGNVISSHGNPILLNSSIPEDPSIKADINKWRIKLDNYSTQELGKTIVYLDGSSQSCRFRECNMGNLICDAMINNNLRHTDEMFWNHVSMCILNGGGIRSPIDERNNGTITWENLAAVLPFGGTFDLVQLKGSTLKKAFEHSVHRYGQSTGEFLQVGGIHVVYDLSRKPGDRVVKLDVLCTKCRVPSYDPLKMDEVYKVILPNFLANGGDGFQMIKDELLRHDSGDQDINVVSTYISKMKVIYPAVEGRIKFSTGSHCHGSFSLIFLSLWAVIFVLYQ
CD73 (MDA-MB-231 cells), sequence (P21589 27-574): as the sequence (P21589 27-574, species assumed) above

With `Cn1c(=O)[nH]c2nnc(-c3c[nH]c(=O)[nH]c3=O)cc21` [Example 1, 5-(5-methyl-6-oxo-7H-imidazo[4,5-c]pyridazin-3-yl)-1H-pyrimidine-2,4-dione], the IC50 stood at 622 nM at recombinant CD73 protein and 74 nM on CD73 (MDA-MB-231 cells). The corresponding values for `Cn1c(=O)n(C)c2nnc(-c3c[nH]c(=O)[nH]c3=O)cc21` [Example 2, 5-(5,7-dimethyl-6-oxo-imidazo[4,5-c]pyridazin-3-yl)-1H-pyrimidine-2,4-dione] are 254 nM and 156 nM.

As to `CC(C)n1c(=O)n(C)c2nnc(-c3c[nH]c(=O)[nH]c3=O)cc21` [Example 3, 5-(5-isopropyl-7-methyl-6-oxo-imidazo[4.5-]pyridazin-3-yl)-1H-pyrimidine-2,4-dione], the half-maximal inhibitory concentration (IC50) at recombinant CD73 protein was found to be 267 nM; on CD73 (MDA-MB-231 cells), 27 nM. With `Cn1c(=O)n(Cc2ccccc2)c2cc(-c3c[nH]c(=O)[nH]c3=O)nnc21` [Example 4, 5-(5-benzyl-7-methyl-6-oxo-imidazo[4,5-c]pyridazin-3-yl)-1H-pyrimidine-2,4-dione], at CD73 (MDA-MB-231 cells), the IC50 was 107 nM.

As usually defined, the IC50 is the concentration that gives 50% inhibition.
